Experimental data published in paper PMC11467779, “New anti-ovarian cancer quinolone derivatives acting by modulating microRNA processing machinery” (RSC Medicinal Chemistry, 2024).
“And” between values parts separate entries of the source, which are not always exact repeats. Identical values can stand only once.

Assays:
SKOV-3 cell line = assay: Antiproliferative effect against the SKOV-3 cell line (GI50, cell count); format: cell-based, human; conditions: for GI50: 50% cell growth inhibition, 72 hours of treatment, cell count, ND = activity not dose dependent
Procedure: (§1) SKOV-3, A2780 and A2780 CIS were cultured and maintained, as previously described,[50] at 37 °C in RPMI 1640 medium (Euroclone) supplemented with 10% fetal bovine serum (FBS; Euroclone), L-glutamine and penicillin/streptomycin (SIGMA-ALDRICH). OVCA433, HEK-293T, HeLa, HCCLM3, SK-Hep-1, MCF-7, A549 and HCT-116 cells were maintained in DMEM medium (Euroclone) containing 10% FBS (Euroclone), L-glutamine and penicillin/streptomycin (SIGMA-ALDRICH). Wi-38 cells were cultured in DMEM medium (Euroclone) supplemented with 10% FBS (Euroclone), L-glutamine and penicillin/streptomycin (SIGMA-ALDRICH), and 1% non-essential amino acids (NEAA; Euroclone). The cultures were maintained in a constant temperature incubator at 37 °C with 5% CO2. […] Once cell adhesion had been promoted, the compounds were added to the culture medium. After 72 hours of treatment, the cells were counted, and the data analyzed by linear regression. Each experiment was carried out three times in triplicate and three separate cell counts were made for each sample. […] Afterwards, the concentration range was narrowed to the relative value obtained in the first evaluation in order to obtain an accurate value.

[1] = Cytotoxicity against non-tumor Wi-38 cells (CC50, cell count); format: cell-based; conditions: human, Wi-38 cells (non-tumor), 50% cytotoxicity concentration, 72 hours of treatment
Procedure: as §1

hTopI = target: T1, hTopI (Homo sapiens, UniProt P11387); assay: Detection of hTOP1 cleavage complexes (cleavage assay); format: cell-based; conditions: 100 μM
T1 construct: endogenous in cells
Procedure: (§2) After compound treatments, 1 × 10^6 human cells in 35 mm dish per sample were washed with 1× phosphate-buffered saline (PBS) and lysed with 600 μL of DNAzol (Invitrogen), followed by precipitation with 300 μL of 200 proof ethanol. The nucleic acids were collected, washed with 75% ethanol, resuspended in 200 μL of TE buffer, and then heated at 65 °C for 15 min, followed by shearing with sonication (40% output for 10 s pulse and 10 s rest for four times). The samples were centrifuged at 15 000 rpm for 5 min at 4 °C, and the supernatant were collected. 1 μL of each sample was removed for spectrophotometric measurement of absorbance at 260 nm to quantitate DNA content (NanoDrop). 2 μg of each sample was subjected to slot-blot for immunoblotting using anti-hTOP1 antibody (BD Pharmingen, 556597) and anti-hTOP2α antibody (Santa Cruz biotechnology, 365916).[51]

hTopII = target: T2, hTopII (Homo sapiens, UniProt P11388); assay: Detection of hTOP2α cleavage complexes (cleavage assay); format: cell-based; conditions: 100 μM
T2 construct: endogenous in cells
Procedure: as §2

OVCA433 = assay: Antiproliferative effect against OVCA433 (GI50); format: cell-based; conditions: Homo sapiens, 72 hours of treatment, cell count
Procedure: as §1

A2780 = assay: Antiproliferative effect against A2780 (GI50); format: cell-based; conditions: Homo sapiens, 72 hours of treatment, cell count
Procedure: as §1

[2] = tested on: shRNA to siRNA maturation (GAPDH mRNA); assay: RNAi enhancing activity (shRNA to siRNA maturation, GAPDH mRNA in HEK-293T_shGAPDH); format: cell-based, human; conditions: 50 μM, 48 hours
Procedure: HEK-293T_shSCR and HEK-293T_shGAPDH were treated with 50 μM of enoxacin and 33 for 48 hours before RNA extraction and expression analysis.
Lentiviral particles were produced by calcium phosphate transient transfection of HEK-293T cells with specific lentiviral plasmids (shGAPDH: TRCN0000445616 and shSCR: TRCN0000015937 from SIGMA-ALDRICH) together with the packaging plasmids (pLP1and pLP2) and the envelope plasmid pLP/VSVG. For each lentiviral plasmid one 150 mm plate of HEK293T cells was used for transfection. After 14–16 hours the medium was replaced with complete medium supplemented with 1 mM sodium butyrate (SIGMA-ALDRICH). The collection of medium containing lentiviral particles occurs 48 h and 72 h after transfection; complete medium supplemented with sodium butyrate was added after the first collection. […]
Total RNA was extracted using the Direct-zol RNA MiniPrep kit (Zymo Research) with on-column DNase treatment, according to the manufacturer's instructions. Reverse transcription was carried out with SuperScript VILO cDNA Synthesis Kit (Life Technologies) and the cDNA samples were analyzed by qRT-PCR using PowerUp SYBR Green Master Mix (Thermo Fisher Scientific). For miR-21 expression analysis total RNA was retrotranscribed using miRCURY® LNA® RT Kit (Qiagen) and the cDNA was analyzed by using miRCURY® LNA® miRNA PCR Assay (Qiagen). […]

miR-21-5p biogenesis = assay: miR-21-5p luciferase reporter (psi-R21 / psi-CTRL) in HeLa cells; format: cell-based, human; conditions: 50 μM, 6 hours
Procedure: HeLa cells were transfected with 10 ng of psi-R21 or psi-CTRL using Lipofectamine™ 2000 (Thermo Fisher Scientific) and after 48 hours were treated with either enoxacin or 33 at 20 μM and 50 μM. After 6 hours Renilla luciferase (RLuc) and firefly luciferase (FLuc) activities were measured using the Dual-Luciferase® Reporter Assay System (Promega), following the manufacturer's instructions, and GloMax® Discover Microplate Reader (Promega).
The binding site for miR-21 was cloned into psiCHECK™-2 Vector (Promega), downstream the Renilla cDNA, by inverted PCR using the following oligonucleotides: 21MRE_FW […]; 21MRE_REV […]. The resulting construct was named psi-R21.

miR-21 = miR-21 expression in HeLa cells (qRT-PCR); format: cell-based, human; conditions: 50 μM, 6 hours
Procedure: Total RNA was extracted using the Direct-zol RNA MiniPrep kit (Zymo Research) with on-column DNase treatment, according to the manufacturer's instructions. Reverse transcription was carried out with SuperScript VILO cDNA Synthesis Kit (Life Technologies) and the cDNA samples were analyzed by qRT-PCR using PowerUp SYBR Green Master Mix (Thermo Fisher Scientific). For miR-21 expression analysis total RNA was retrotranscribed using miRCURY® LNA® RT Kit (Qiagen) and the cDNA was analyzed by using miRCURY® LNA® miRNA PCR Assay (Qiagen). The oligonucleotides used are the following: GAPDH_FW […]; GAPDH_REV […]; ATP5O_FW […]; ATP5O_REV […]; hsa-miR-21-5p miRCURY LNA miRNA PCR Assay (YP00204230); U6 snRNA (v2) miRCURY LNA miRNA PCR Assay (YP02119464).

[3] = tested on: several cancer cell lines; set-up: method as in PMID 21368194; conditions: wide panel of cancer cells; read-out: GI50 against several cancer cell lines; cited from earlier work

T2 sequence (P11388 whole entry): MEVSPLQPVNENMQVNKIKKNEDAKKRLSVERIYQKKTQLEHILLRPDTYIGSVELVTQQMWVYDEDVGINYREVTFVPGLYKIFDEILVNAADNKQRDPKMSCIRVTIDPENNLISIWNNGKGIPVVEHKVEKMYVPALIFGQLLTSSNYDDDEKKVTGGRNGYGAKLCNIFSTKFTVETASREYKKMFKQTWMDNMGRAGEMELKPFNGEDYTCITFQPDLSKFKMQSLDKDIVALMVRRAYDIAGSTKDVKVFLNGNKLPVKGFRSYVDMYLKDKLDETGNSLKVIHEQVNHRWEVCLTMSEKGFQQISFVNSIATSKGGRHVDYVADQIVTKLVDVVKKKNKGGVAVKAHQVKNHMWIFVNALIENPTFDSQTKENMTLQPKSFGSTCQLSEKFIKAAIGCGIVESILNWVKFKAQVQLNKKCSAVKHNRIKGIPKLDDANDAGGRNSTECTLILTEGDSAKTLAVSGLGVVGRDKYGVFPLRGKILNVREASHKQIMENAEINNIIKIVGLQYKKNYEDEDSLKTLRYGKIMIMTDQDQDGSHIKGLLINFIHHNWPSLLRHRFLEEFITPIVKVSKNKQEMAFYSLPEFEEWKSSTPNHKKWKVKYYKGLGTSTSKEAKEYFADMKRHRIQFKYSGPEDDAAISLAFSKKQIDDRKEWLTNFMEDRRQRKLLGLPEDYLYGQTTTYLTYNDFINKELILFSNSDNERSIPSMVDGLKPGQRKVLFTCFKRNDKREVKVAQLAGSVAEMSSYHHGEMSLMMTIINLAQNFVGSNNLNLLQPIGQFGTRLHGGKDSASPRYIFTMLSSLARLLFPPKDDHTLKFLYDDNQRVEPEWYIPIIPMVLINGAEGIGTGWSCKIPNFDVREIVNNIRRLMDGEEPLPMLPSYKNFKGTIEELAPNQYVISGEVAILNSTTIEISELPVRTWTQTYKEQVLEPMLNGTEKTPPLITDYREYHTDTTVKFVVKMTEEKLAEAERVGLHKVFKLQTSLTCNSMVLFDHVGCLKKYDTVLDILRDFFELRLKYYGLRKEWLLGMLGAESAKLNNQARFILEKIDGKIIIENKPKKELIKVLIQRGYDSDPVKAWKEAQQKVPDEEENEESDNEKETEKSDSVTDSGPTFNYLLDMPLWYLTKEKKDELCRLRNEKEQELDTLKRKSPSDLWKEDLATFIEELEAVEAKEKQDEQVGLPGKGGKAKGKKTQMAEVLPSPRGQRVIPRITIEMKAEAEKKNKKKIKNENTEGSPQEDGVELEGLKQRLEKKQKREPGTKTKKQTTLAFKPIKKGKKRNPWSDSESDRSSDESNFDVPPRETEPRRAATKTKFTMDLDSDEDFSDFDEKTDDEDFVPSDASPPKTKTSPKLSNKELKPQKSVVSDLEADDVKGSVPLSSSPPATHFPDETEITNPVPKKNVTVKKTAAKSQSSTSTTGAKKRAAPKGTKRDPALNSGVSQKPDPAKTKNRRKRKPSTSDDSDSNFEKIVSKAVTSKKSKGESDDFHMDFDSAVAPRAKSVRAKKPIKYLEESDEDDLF
T1 sequence (P11387 whole entry): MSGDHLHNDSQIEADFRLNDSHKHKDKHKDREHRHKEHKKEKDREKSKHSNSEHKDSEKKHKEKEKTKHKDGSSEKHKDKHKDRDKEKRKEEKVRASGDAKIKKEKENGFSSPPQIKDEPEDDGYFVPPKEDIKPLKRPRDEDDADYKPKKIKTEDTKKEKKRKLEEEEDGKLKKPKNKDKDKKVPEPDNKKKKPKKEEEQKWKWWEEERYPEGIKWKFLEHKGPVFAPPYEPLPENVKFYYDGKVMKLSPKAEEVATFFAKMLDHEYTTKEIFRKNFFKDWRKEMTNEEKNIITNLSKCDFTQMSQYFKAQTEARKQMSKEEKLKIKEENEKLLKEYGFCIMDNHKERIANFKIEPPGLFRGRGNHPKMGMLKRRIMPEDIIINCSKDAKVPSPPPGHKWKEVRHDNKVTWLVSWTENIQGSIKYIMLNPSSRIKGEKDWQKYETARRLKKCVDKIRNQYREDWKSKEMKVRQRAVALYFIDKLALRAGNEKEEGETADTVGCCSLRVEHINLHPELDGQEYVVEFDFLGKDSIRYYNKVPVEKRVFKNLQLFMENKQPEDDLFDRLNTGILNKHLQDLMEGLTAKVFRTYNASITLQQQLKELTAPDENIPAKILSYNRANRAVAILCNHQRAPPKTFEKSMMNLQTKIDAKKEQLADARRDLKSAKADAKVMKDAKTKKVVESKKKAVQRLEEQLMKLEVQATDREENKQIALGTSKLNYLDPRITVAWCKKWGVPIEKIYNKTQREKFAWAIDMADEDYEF

Compound: Cc1c(N2CCc3ccccc3C2)c(N)cc2c(=O)c(C(=O)O)cn(C3CC3)c12 [Compound 5]
- GI50 (SKOV-3 cell line): 37.7 ± 3.38 µM
- GI50 (SKOV-3 cell line; Homo sapiens, SK-OV-3, 72 h): 38 µM
- GI50 SKOV-3, fold lower than enoxacin (SKOV-3 cell line; versus enoxacin): about 3 fold
- CC50 at 72 h [1]: 38.5 ± 29 µM
- trapping/inhibition of hTopI (cleavage assay) (hTopI): did not trap human topoisomerases
- trapping/inhibition of hTopII (cleavage assay) (hTopII): did not trap human topoisomerases

Compound: CCn1cc(C(=O)O)c(=O)c2cc(F)c(N3CCNCC3)nc21 [Enoxacin, enoxacin, reference compound]
- GI50 (SKOV-3 cell line; Homo sapiens, SK-OV-3, 72 h): 125 µM
- CC50 at 72 h [1]: 216 ± 123 µM
- GI50 (OVCA433): 118 ± 8.89 µM
- GI50 (A2780): 142 ± 8.73 µM
- RNAi enhancing effect (GAPDH mRNA decrease) [2]: comparable
- miRNA enhancing effect: Renilla luciferase activity, psi-R21 construct (miR-21-5p biogenesis): miRNA enhancing effect
- miR-21 level in HeLa cells (miR-21): Upregulation of miR-21
- GI50 [3]: ~125 µM and 125 µM
